# Reference: US20130096170A1 (priority 2011, published 2013)
# Legend:
# clinical = details: human, plasma, intravenous, full evaluable population
# [1] = tested on: neonates ≥28 to ≤44 weeks gestational age
# [2] = age Group I, dose level 2 (Dex 0.1), N = 6
structure (smiles),measurement,setting,value
Cc1cccc([C@H](C)c2cnc[nH]2)c1C [dexmedetomidine],Tmax,"clinical; Tmax Mean, Dose Level 4, LD 1.00/CD 2.00 μg/kg/hr",6.82 h
same,Tmax,"clinical; Tmax Median, Dose Level 1, LD 0.25/CD 0.2 μg/kg/hr",6.04 h
same,Tmax,"clinical; Tmax Median, Dose Level 2, LD 0.50/CD 0.4 μg/kg/hr",5.68 h
same,Tmax,"clinical; Tmax Median, Dose Level 3, LD 1.00/CD 0.7 μg/kg/hr",0.367 h
same,Tmax,"clinical; Tmax Median, Dose Level 4, LD 1.00/CD 2.00 μg/kg/hr",5.42 h
same,Vd,"clinical; Vd Mean, Dose Level 1, LD 0.25/CD 0.2 μg/kg/hr",62 L
same,Vd,"clinical; Vd Mean, Dose Level 2, LD 0.50/CD 0.4 μg/kg/hr",50.6 L
same,Vd,"clinical; Vd Mean, Dose Level 3, LD 1.00/CD 0.7 μg/kg/hr",52.3 L
same,Vd,"clinical; Vd Mean, Dose Level 4, LD 1.00/CD 2.00 μg/kg/hr",62.2 L
same,Vd,"clinical; Vd Median, Dose Level 2, LD 0.50/CD 0.4 μg/kg/hr",40.7 L
same,Vd,"clinical; Vd Median, Dose Level 3, LD 1.00/CD 0.7 μg/kg/hr",51.3 L
same,Vd,"clinical; Vd Median, Dose Level 4, LD 1.00/CD 2.00 μg/kg/hr",57.8 L
same,Vd,"clinical; Vd, Table 30 key summary (mean), Dose Level 1, LD 0.25/CD 0.2 μg/kg/hr",62 L
same,Vd,"clinical; Vd, Table 30 key summary (mean), Dose Level 2, LD 0.50/CD 0.4 μg/kg/hr",50.6 L
same,Vd,"clinical; Vd, Table 30 key summary (mean), Dose Level 3, LD 1.00/CD 0.7 μg/kg/hr",52.3 L
same,Vd,"clinical; Vd, Table 30 key summary (mean), Dose Level 4, LD 1.00/CD 2.00 μg/kg/hr",62.2 L
same,Vd,"clinical; Vss Mean, Dose Level 1, LD 0.25/CD 0.2 μg/kg/hr",56.8 L
same,Vd,"clinical; Vss Mean, Dose Level 3, LD 1.00/CD 0.7 μg/kg/hr",32.8 L
same,Vd,"clinical; Vss Mean, Dose Level 4, LD 1.00/CD 2.00 μg/kg/hr",43.7 L
same,Vd,"clinical; Vss Median, Dose Level 1, LD 0.25/CD 0.2 μg/kg/hr",40.3 L
same,Vd,"clinical; Vss Median, Dose Level 2, LD 0.50/CD 0.4 μg/kg/hr",30.6 L
same,Vd,"clinical; Vss Median, Dose Level 3, LD 1.00/CD 0.7 μg/kg/hr",30.4 L
same,Vd,"clinical; Vss Median, Dose Level 4, LD 1.00/CD 2.00 μg/kg/hr",33.1 L
same,clearance,"clinical; Weight-adjusted CL Mean, Dose Level 1, LD 0.25/CD 0.2 μg/kg/hr",17.3 mL/min/kg
same,clearance,"clinical; Weight-adjusted CL Mean, Dose Level 2, LD 0.50/CD 0.4 μg/kg/hr",15.7 mL/min/kg
same,clearance,"clinical; Weight-adjusted CL Mean, Dose Level 3, LD 1.00/CD 0.7 μg/kg/hr",14 mL/min/kg
same,clearance,"clinical; Weight-adjusted CL Mean, Dose Level 4, LD 1.00/CD 2.00 μg/kg/hr",14.2 mL/min/kg
same,clearance,"clinical; Weight-adjusted CL Median, Dose Level 1, LD 0.25/CD 0.2 μg/kg/hr",19.9 mL/min/kg
same,clearance,"clinical; Weight-adjusted CL Median, Dose Level 2, LD 0.50/CD 0.4 μg/kg/hr",14.7 mL/min/kg
same,clearance,"clinical; Weight-adjusted CL Median, Dose Level 3, LD 1.00/CD 0.7 μg/kg/hr",14.7 mL/min/kg
same,clearance,"clinical; Weight-adjusted CL Median, Dose Level 4, LD 1.00/CD 2.00 μg/kg/hr",13.4 mL/min/kg
same,clearance,"clinical; Weight-adjusted CL, Table 30 key summary (mean), Dose Level 1, LD 0.25/CD 0.2 μg/kg/hr",16.7 mL/min/kg
same,clearance,"clinical; Weight-adjusted CL, Table 30 key summary (mean), Dose Level 2, LD 0.50/CD 0.4 μg/kg/hr",15 mL/min/kg
same,clearance,"clinical; Weight-adjusted CL, Table 30 key summary (mean), Dose Level 3, LD 1.00/CD 0.7 μg/kg/hr",13.3 mL/min/kg
same,clearance,"clinical; Weight-adjusted CL, Table 30 key summary (mean), Dose Level 4, LD 1.00/CD 2.00 μg/kg/hr",13.3 mL/min/kg
same,Vd,"clinical; Weight-adjusted Vd Mean, Dose Level 1, LD 0.25/CD 0.2 μg/kg/hr",2.17 L/kg
same,Vd,"clinical; Weight-adjusted Vd Mean, Dose Level 2, LD 0.50/CD 0.4 μg/kg/hr",2.31 L/kg
same,Vd,"clinical; Weight-adjusted Vd Mean, Dose Level 3, LD 1.00/CD 0.7 μg/kg/hr",2.44 L/kg
same,Vd,"clinical; Weight-adjusted Vd Mean, Dose Level 4, LD 1.00/CD 2.00 μg/kg/hr",2.48 L/kg
same,Vd,"clinical; Weight-adjusted Vd Median, Dose Level 1, LD 0.25/CD 0.2 μg/kg/hr",2.43 L/kg
same,Vd,"clinical; Weight-adjusted Vd Median, Dose Level 2, LD 0.50/CD 0.4 μg/kg/hr",2.49 L/kg
same,Vd,"clinical; Weight-adjusted Vd Median, Dose Level 3, LD 1.00/CD 0.7 μg/kg/hr",2.19 L/kg
same,Vd,"clinical; Weight-adjusted Vd Median, Dose Level 4, LD 1.00/CD 2.00 μg/kg/hr",2.15 L/kg
same,Vd,"clinical; Weight-adjusted Vd, Table 30 key summary (mean), Dose Level 1, LD 0.25/CD 0.2 μg/kg/hr",2.2 L/kg
same,Vd,"clinical; Weight-adjusted Vd, Table 30 key summary (mean), Dose Level 2, LD 0.50/CD 0.4 μg/kg/hr",2.3 L/kg
same,Vd,"clinical; Weight-adjusted Vd, Table 30 key summary (mean), Dose Level 3, LD 1.00/CD 0.7 μg/kg/hr",2.4 L/kg
same,Vd,"clinical; Weight-adjusted Vd, Table 30 key summary (mean), Dose Level 4, LD 1.00/CD 2.00 μg/kg/hr",2.5 L/kg
same,half-life,"clinical; t1/2, Table 30 key summary (mean), Dose Level 1, LD 0.25/CD 0.2 μg/kg/hr",1.5 h
same,half-life,"clinical; t1/2, Table 30 key summary (mean), Dose Level 2, LD 0.50/CD 0.4 μg/kg/hr",1.7 h
same,half-life,"clinical; t1/2, Table 30 key summary (mean), Dose Level 3, LD 1.00/CD 0.7 μg/kg/hr",2 h
same,half-life,"clinical; t1/2, Table 30 key summary (mean), Dose Level 4, LD 1.00/CD 2.00 μg/kg/hr",2.1 h
same,half-life,"clinical; t1/2 Mean, Dose Level 1, LD 0.25/CD 0.2 μg/kg/hr",1.55 h
same,half-life,"clinical; t1/2 Mean, Dose Level 2, LD 0.50/CD 0.4 μg/kg/hr",1.74 h
same,half-life,"clinical; t1/2 Mean, Dose Level 3, LD 1.00/CD 0.7 μg/kg/hr",2.04 h
same,half-life,"clinical; t1/2 Mean, Dose Level 4, LD 1.00/CD 2.00 μg/kg/hr",2.14 h
same,half-life,"clinical; t1/2 Median, Dose Level 1, LD 0.25/CD 0.2 μg/kg/hr",1.56 h
same,half-life,"clinical; t1/2 Median, Dose Level 2, LD 0.50/CD 0.4 μg/kg/hr",1.69 h
same,half-life,"clinical; t1/2 Median, Dose Level 3, LD 1.00/CD 0.7 μg/kg/hr",1.79 h
same,half-life,"clinical; t1/2 Median, Dose Level 4, LD 1.00/CD 2.00 μg/kg/hr",2.12 h
same,"TEAE: Anger, subjects",[1]; [2],1 (16.7%)
same,"TEAE: Blood bilirubin unconjugated increased, subjects",[1]; [2],1 (16.7%)
same,"TEAE: Bradycardia, subjects",[1]; [2],1 (16.7%)
same,"TEAE: Cardiac disorders, subjects",[1]; [2],1 (16.7%)
same,"TEAE: Cardio-respiratory arrest, subjects",[1]; [2],1 (16.7%)
same,"TEAE: General disorders and administration site conditions, subjects",[1]; [2],2 (33.3%)
same,"TEAE: Haematuria, subjects",[1]; [2],1 (16.7%)
same,"TEAE: Hepatobiliary disorders, subjects",[1]; [2],1 (16.7%)
same,"TEAE: Hyperbilirubinaemia, subjects",[1]; [2],1 (16.7%)
same,"TEAE: Hyperglycaemia, subjects",[1]; [2],1 (16.7%)
same,"TEAE: Hypocalcaemia, subjects",[1]; [2],1 (16.7%)
same,"TEAE: Hypoproteinaemia, subjects",[1]; [2],1 (16.7%)
same,"TEAE: Infections and infestations, subjects",[1]; [2],1 (16.7%)
same,"TEAE: Infusion site extravasation, subjects",[1]; [2],1 (16.7%)
same,"TEAE: Investigations, subjects",[1]; [2],2 (33.3%)
same,"TEAE: Oedema, subjects",[1]; [2],1 (16.7%)
same,"TEAE: Oxygen saturation decreased, subjects",[1]; [2],1 (16.7%)
same,"TEAE: Psychiatric disorders, subjects",[1]; [2],1 (16.7%)
same,"TEAE: Renal and urinary disorders, subjects",[1]; [2],1 (16.7%)
same,"TEAE: Sepsis, subjects",[1]; [2],1 (16.7%)
same,"TEAE: Metabolism and nutrition disorders, subjects","[1]; human, in vivo",3 (50.0%)
same,TEAE: Number of Events,"[1]; human, in vivo",18
same,patients with adverse events,"[1]; human, in vivo",67%
same,subjects with treatment-emergent adverse effects assessed as related to treatment,"[1]; human, in vivo",2 subjects
same,safety and tolerability,[1]; in vivo,safe and well tolerated
same,severe treatment-emergent adverse effects,[1]; in vivo,no severe
